Measurements taken from patent US20260376293A1, “METHODS FOR STUDYING GPR158 PHARMACOLOGY AND IDENTIFICATION OF ITS LIGANDS” (UNIVERSITY OF FLORIDA RESEARCH FOUNDATION, INCORPORATED, priority 2022, published 2026).

Key:
GPR158 S266A mutant [1] = molecular target: T1, GPR158 S266A mutant (Homo sapiens, UniProt Q5T848, S266A); assay: GAP BRET assay on GPR158 mutant S266A; assay type: cell-based
T1 construct: RGS7/Gβ5 co-expressed in the GAP BRET row only
T1 sequence (Q5T848 24-1215 S266A): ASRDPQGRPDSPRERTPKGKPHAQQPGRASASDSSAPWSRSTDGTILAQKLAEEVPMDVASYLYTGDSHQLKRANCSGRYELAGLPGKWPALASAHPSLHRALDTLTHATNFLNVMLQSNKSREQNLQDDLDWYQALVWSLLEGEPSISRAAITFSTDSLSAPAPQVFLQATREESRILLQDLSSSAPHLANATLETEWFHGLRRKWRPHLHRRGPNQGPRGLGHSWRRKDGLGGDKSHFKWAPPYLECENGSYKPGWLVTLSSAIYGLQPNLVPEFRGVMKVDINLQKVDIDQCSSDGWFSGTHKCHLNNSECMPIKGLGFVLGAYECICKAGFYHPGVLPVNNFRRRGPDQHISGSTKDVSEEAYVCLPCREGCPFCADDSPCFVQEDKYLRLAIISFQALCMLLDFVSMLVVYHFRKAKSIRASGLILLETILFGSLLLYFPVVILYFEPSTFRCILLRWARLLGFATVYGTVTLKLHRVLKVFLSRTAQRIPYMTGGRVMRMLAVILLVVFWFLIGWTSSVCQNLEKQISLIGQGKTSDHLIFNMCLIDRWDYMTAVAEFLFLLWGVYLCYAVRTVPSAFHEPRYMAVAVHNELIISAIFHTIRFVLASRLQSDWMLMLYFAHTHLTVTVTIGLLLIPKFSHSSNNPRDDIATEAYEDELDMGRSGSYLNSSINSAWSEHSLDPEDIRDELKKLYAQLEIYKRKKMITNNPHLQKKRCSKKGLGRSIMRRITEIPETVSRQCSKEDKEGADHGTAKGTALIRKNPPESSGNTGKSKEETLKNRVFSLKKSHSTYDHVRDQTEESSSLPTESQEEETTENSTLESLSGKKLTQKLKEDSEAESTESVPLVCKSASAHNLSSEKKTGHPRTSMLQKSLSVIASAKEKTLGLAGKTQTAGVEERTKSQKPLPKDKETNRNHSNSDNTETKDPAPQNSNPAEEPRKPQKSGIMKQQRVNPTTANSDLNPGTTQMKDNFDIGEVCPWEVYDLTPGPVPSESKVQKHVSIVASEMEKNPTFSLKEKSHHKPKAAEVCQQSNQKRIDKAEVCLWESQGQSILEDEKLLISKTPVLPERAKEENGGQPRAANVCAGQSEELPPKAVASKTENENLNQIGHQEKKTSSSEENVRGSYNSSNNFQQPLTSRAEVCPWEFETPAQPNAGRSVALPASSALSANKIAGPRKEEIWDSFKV
From the text: FIGS. 11A-11G. Probing Cache domain of GPR158 as a ligand binding site A) Computational docking of glycine into putative ligand binding pocket on GPR158 Cache domain. Glycine and directly interacting residues are shown as sticks. Hydrogen bonds and van der Waals interactions are shown as dotted lines. B) Diagram showing interactions in the docked model of glycine against GPR158 Cache domain. Hydrogen bonds are shown as dashed lines, van der Waals interactions are shown as intersecting semicircles, and the secondary structural context of Ser266 and Tyr269 is shown as an arc. Dagger indicates a residue implicated in glycine binding in 11A. […] Error bars are mean±s.e.m. of 3 independent experiments in triplicate. *p<0.05, **p<0.01, ***p<0.001, ****p<0.0001, ns=p>0.05, two-way ANOVA Columns with no fill (Ctrl), columns with angled-line fill (Glycine) E) Quantification of glycine inhibitory effect on kGAP normalized to the effect seen with WT receptor. […]
Cellular measurements of BRET between Venus-Gβ1γ2 and masGRK3ct-Nluc were performed to examine GAP activity of RGS protein in living cells (described in detail in Masuho et al., 2015 (40)). […] The BRET signal was determined by calculating the ratio of the light emitted by the Venus-Gβ1γ2 (535 nm with a 30 nm band path width) over the light emitted by the masGRK3ct-Nluc (475 nm with a 30 nm band path width). […]

GPR158 S266A mutant [2] = molecular target: T1, GPR158 S266A mutant; assay: Radioligand binding assay on GPR158 mutant S266A
From the text: FIGS. 11A-11G. Probing Cache domain of GPR158 as a ligand binding site A) Computational docking of glycine into putative ligand binding pocket on GPR158 Cache domain. Glycine and directly interacting residues are shown as sticks. Hydrogen bonds and van der Waals interactions are shown as dotted lines. B) Diagram showing interactions in the docked model of glycine against GPR158 Cache domain. Hydrogen bonds are shown as dashed lines, van der Waals interactions are shown as intersecting semicircles, and the secondary structural context of Ser266 and Tyr269 is shown as an arc. Dagger indicates a residue implicated in glycine binding in 11A. C) Radioligand binding assay of ^3H-glycine in cells expressing GPR158 mutants. Data shown mean±s.e.m. of 3 independent experiments, *p<0.05, ns=p>0.05 one-way ANOVA. D) Functional evaluation of GPR158 mutants in GAP BRET assay. Error bars are mean±s.e.m. of 3 independent experiments in triplicate. *p<0.05, **p<0.01, ***p<0.001, ****p<0.0001, ns=p>0.05, two-way ANOVA Columns with no fill (Ctrl), columns with angled-line fill (Glycine) E) Quantification of glycine inhibitory effect on kGAP normalized to the effect seen with WT receptor. […]
Whole cell binding was performed using cDNA of GPR158-venus or each GPR158-venus mutant or empty pcDNA3.1+ for ctrl cells. […] Finally radioactivity was measured using the liquid scintillation analyzer Tri-Carb 4910 TR.

Question: Which “regulation of mutant activity by glycine” value (GPR158 S266A mutant [1]) does the source give for `NCC(=O)O` [glycine] here?
Answer: unable to be regulated

Question: What about the glycine binding (GPR158 S266A mutant [2]) of the same compound?
Answer: normally bind glycine
